Source: patent publication US20170137417A1 (priority 2014, published 2017)

Details: Log P, [a] LC-UV, acidic range
Procedure: Measurement of Log P values was performed according to EEC directive 79/831 Annex V.A8 by HPLC (High Performance Liquid Chromatography) on reversed phase columns with the following methods:
[a] Log P value is determined by measurement of LC-UV, in an acidic range, with 0.1% formic acid in water and acetonitrile as eluent (linear gradient from 10% acetonitrile to 95% acetonitrile).
Calibration was done with straight-chain alkan2-ones (with 3 to 16 carbon atoms) with known Log P values (measurement of Log P values using retention times with linear interpolation between successive alkanones).

## C#CCOc1ccc(F)c(F)c1C1CC(c2csc(C3CCN(C(=O)Nc4cc(C)ccc4C)CC3)n2)=NO1 (stereo not shown) [Example I-3]
  chromatographic logP: 3.45
